Among the data in ChEMBL document CHEMBL4130372, “The antitrypanosomal and antitubercular activity of some nitro(triazole/imidazole)-based aromatic amines” (Eur J Med Chem, 2017) are MIC values, retold here.

Common to all, as to assay type: functional
The test system of assay [1] is Mycobacterium tuberculosis. Description: Antitubercular activity against Mycobacterium tuberculosis INH-R1 harboring katG Y155 truncated mutant after 5 days by fluorescence-based assay.
Assay [2] concerns Mycobacterium tuberculosis. The assay is described as follows: Antitubercular activity against Mycobacterium tuberculosis FQ-R1 harboring gyrB D94N mutant after 5 days by fluorescence-based assay.
Assay [3] concerns Mycobacterium tuberculosis. The assay is described as follows: Antitubercular activity against Mycobacterium tuberculosis RIF-R1 harboring rpoB S522L mutant after 5 days by fluorescence-based assay.

Values after ≈ are worked out from the molar mass of the structure shown.

Broadly, the MIC is the least concentration at which growth counts as inhibited. Low readings indicate greater potency, high ones weaker potency. In the case of `O=[N+]([O-])c1ncn(CCCCNc2ncnc3ccccc23)n1`, the figures for the MIC in assay [1], in assay [2] and in assay [3] were 200 µM (≈ 62.7 µg/mL), greater than 200 µM and greater than 200 µM, respectively.
`O=[N+]([O-])c1nccn1CCCCNc1ccnc2c(Cl)cccc12`: the MIC in assay [1], in assay [2] and in assay [3] was greater than 200 µM each time.
`NNC(=O)c1ccncc1` [ISONIAZID]: the MIC in assay [1] is greater than 200 µM; in assay [2], 0.35 µM (≈ 0.048 µg/mL); in assay [3] it was 0.31 µM (≈ 0.0425 µg/mL).
Consider `C[C@H]1COc2c(N3CCN(C)CC3)c(F)cc3c(=O)c(C(=O)O)cn1c23.C[C@H]1COc2c(N3CCN(C)CC3)c(F)cc3c(=O)c(C(=O)O)cn1c23.O` [LEVOFLOXACIN], for which the results for the MIC in assay [1], in assay [2] and in assay [3] were 1.1 µM, 14 µM and 0.85 µM, respectively.
Regarding `CO[C@H]1/C=C/O[C@@]2(C)Oc3c(C)c(O)c4c(O)c(c(/C=N/N5CCN(C)CC5)c(O)c4c3C2=O)NC(=O)/C(C)=C\C=C\[C@H](C)[C@H](O)[C@@H](C)[C@@H](O)[C@@H](C)[C@H](OC(C)=O)[C@@H]1C` [RIFAMPIN], the MIC was 0.012 µM (≈ 0.00988 µg/mL) in assay [1], greater than 0.04 µM in assay [2] and 7.2 µM (≈ 5.93 µg/mL) in assay [3].
